Assay results published in publication PMC3626661, “Functional Specificity of Sex Pheromone Receptors in the Cotton Bollworm Helicoverpa armigera” (PLoS ONE, 2013).

Assays:
Assay in all cases: two-electrode voltage clamp in Xenopus oocytes, dose-response
Assay type in all cases: cell-based
HarmOR6 = target: T1, HarmOR6 (Helicoverpa armigera, UniProt R4JSE3)
T1 construct: gene OR6; full-length ORF; with HarmOrco (HarmOR2)
T1 sequence (R4JSE3 1-425): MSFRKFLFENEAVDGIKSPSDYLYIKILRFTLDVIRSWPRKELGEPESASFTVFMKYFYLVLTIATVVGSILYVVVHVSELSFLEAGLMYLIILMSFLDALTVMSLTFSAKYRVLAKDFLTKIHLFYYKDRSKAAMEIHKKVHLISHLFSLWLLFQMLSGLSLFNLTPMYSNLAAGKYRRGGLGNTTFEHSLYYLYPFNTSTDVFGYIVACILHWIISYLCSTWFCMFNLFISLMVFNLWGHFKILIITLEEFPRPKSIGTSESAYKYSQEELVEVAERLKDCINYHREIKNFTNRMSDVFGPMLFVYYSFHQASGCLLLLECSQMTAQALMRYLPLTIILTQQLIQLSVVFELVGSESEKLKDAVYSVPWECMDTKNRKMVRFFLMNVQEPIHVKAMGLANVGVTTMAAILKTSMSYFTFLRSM
T1 sequence (A0A075TD45 1-473 partner): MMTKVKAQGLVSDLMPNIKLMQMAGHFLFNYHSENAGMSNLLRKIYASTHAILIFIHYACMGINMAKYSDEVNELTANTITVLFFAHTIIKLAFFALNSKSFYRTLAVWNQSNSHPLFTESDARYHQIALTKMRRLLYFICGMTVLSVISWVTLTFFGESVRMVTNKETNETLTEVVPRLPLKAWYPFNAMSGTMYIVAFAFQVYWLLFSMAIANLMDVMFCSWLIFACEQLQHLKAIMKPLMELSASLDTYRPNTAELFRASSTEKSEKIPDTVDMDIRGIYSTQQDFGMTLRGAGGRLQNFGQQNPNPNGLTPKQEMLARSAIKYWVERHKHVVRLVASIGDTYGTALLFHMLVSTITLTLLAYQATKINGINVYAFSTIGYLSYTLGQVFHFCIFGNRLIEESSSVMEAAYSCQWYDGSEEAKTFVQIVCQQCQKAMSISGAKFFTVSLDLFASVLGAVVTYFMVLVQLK
Excerpt: two-electrode voltage clamp in Xenopus oocytes, dose-response on HarmOR6 | Dose–response curve of HarmOR6/HarmOR2 Xenopus oocytes to Z9-16:Ald. | Dose–response curve of HarmOR6/HarmOR2 Xenopus oocytes to Z9-14:Ald.

HarmOR13 = target: T2, HarmOR13 (Helicoverpa armigera, UniProt A0A075TD52)
T2 construct: gene OR13; full-length ORF; with HarmOrco (HarmOR2)
T2 sequence (A0A075TD52 1-425): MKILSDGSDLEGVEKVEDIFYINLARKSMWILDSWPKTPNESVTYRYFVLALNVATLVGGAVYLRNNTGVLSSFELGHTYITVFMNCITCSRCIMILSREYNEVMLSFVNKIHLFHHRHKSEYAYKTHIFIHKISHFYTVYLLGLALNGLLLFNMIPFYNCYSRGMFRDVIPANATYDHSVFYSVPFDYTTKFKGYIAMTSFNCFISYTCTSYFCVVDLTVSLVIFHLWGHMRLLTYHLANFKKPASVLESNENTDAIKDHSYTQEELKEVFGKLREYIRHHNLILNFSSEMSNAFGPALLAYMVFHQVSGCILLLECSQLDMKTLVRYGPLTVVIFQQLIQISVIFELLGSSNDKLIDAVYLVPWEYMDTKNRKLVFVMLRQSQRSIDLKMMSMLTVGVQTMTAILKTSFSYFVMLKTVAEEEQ
T2 sequence (A0A075TD45 1-473 partner): T1 sequence (A0A075TD45 1-473 partner)

HarmOR16 = target: T3, HarmOR16 (Helicoverpa armigera, UniProt C6K7B8)
T3 construct: full-length ORF; with HarmOrco (HarmOR2)
T3 sequence (C6K7B8 1-422): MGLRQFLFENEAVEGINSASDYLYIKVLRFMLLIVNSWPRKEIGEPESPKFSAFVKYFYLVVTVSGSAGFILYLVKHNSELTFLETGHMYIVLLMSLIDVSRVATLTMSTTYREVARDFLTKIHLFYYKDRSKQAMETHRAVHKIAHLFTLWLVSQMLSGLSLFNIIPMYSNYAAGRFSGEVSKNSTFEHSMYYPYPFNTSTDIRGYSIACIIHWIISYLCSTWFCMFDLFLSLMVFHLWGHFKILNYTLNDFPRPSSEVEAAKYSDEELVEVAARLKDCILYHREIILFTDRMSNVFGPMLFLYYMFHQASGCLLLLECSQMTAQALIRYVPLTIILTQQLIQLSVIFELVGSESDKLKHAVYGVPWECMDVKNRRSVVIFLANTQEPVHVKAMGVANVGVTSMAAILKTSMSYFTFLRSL
T3 sequence (A0A075TD45 1-473 partner): T1 sequence (A0A075TD45 1-473 partner)
Excerpt: two-electrode voltage clamp in Xenopus oocytes, dose-response on HarmOR16 | Dose–response curve of HarmOR16/HarmOR2 Xenopus oocytes to Z11-16:OH.

Row | SMILES | EC50 (HarmOR6) [nM] | also measured
1 | CCCC/C=C\CCCCCCCC=O [Z9-14:Ald, (Z)-9-tetradecenal] | 4340 | 
2 | CCCCCC/C=C\CCCCCCCC=O [Z9-16:Ald, (Z)-9-hexadecenal] | 3530 | 
3 | CCCC/C=C\CCCCCCCCCC=O [Z11-16:Ald, (Z)-11-hexadecenal] |  | EC50 (HarmOR13): 1820 nM
4 | CCCC/C=C\CCCCCCCCCCO [Z11-16:OH, (Z)-11-hexadecen-1-ol] |  | EC50 (HarmOR16): 299 nM
